This passage reports inhibition, IC50 and ΔTm results from ChEMBL document CHEMBL1177780, “Montmorillonite K-10 catalyzed cyclization of N-ethoxycarbonyl-N'-arylguanidines: access to pyrimido[4,5-c]carbazole and pyrimido[5,4-b]indole derivatives” (Bioorg Med Chem Lett, 2010).

The source made the active and inactive calls. No cut-off for these calls is given here.

Assay [1] addresses DNA topoisomerase 2-alpha (Homo sapiens) (UniProt P11388). In words: Inhibition of human topoisomerase 2-mediated relaxation of pUC18 DNA assessed as formation of nicked DNA at 50 uM using ethidium bromide staining by agarose gel electrophoresis.
In assay [2] the target is T1, DNA topoisomerase 1 (Homo sapiens) (UniProt P11387).
T1 sequence (whole entry): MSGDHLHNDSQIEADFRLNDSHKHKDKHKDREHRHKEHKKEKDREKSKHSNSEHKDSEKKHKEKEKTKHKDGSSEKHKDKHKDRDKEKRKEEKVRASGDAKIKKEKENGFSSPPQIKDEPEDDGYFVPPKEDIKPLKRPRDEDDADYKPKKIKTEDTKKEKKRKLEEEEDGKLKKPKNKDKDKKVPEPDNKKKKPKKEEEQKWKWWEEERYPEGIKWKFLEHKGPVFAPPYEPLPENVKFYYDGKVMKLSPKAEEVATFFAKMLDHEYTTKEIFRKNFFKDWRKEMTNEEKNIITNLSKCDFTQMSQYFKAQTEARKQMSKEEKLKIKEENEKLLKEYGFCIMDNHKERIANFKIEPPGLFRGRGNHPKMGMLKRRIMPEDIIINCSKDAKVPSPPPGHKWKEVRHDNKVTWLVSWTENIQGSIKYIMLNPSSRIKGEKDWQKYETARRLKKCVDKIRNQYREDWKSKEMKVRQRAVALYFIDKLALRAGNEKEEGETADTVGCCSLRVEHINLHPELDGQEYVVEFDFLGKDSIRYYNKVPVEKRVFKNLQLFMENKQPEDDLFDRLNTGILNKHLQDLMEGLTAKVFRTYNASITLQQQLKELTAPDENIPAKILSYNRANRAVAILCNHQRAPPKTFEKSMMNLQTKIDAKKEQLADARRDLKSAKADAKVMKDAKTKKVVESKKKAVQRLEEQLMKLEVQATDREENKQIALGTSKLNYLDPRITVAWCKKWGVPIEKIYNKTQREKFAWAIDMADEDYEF
Description: Inhibition of human topoisomerase 1-mediated relaxation of pUC18 DNA assessed as formation of nicked DNA up to 50 uM using ethidium bromide staining by agarose gel electrophoresis.

Assay [3] can be described thus: Cytotoxicity against human HL60/MX2 cells after 72 hrs by MTT assay. In kind it is functional, cell-based. As to conditions: HL60/MX2, 72 h. Background: Tetrazolium assays rely on reduction of a dye to a coloured formazan, in cell work by metabolically active cells.
The subject of assay [4] is Nucleic Acid. Description: Binding affinity to [poly(dAdT)]2 DNA assessed as change in melting temperature at 20 uM. The class given is nucleic-acid assay.
Another assay relates to HL-60. In words: Cytotoxicity against human topoisomerase 2-sensitive HL60 cells after 72 hrs by MTT assay. The class given is functional, cell-based. As to conditions: HL-60, 72 h.
Assay [5] deals with Nucleic Acid. In words: Binding affinity to [poly(dAdT)]2 DNA assessed as change in melting temperature at 10 uM. In kind it is nucleic-acid assay.
Assay [6] relates to Calf thymus DNA. In words: Binding affinity to calf thymus DNA assessed as change in melting temperature at 20 uM. The class given is nucleic-acid assay. As to conditions: Bos taurus.
The subject of assay [7] is Calf thymus DNA. In words: Binding affinity to calf thymus DNA assessed as change in melting temperature at 10 uM. In kind it is nucleic-acid assay. The settings on record: Bos taurus.

Chain of DNA topoisomerase 2-alpha (Homo sapiens) (P11388 whole entry): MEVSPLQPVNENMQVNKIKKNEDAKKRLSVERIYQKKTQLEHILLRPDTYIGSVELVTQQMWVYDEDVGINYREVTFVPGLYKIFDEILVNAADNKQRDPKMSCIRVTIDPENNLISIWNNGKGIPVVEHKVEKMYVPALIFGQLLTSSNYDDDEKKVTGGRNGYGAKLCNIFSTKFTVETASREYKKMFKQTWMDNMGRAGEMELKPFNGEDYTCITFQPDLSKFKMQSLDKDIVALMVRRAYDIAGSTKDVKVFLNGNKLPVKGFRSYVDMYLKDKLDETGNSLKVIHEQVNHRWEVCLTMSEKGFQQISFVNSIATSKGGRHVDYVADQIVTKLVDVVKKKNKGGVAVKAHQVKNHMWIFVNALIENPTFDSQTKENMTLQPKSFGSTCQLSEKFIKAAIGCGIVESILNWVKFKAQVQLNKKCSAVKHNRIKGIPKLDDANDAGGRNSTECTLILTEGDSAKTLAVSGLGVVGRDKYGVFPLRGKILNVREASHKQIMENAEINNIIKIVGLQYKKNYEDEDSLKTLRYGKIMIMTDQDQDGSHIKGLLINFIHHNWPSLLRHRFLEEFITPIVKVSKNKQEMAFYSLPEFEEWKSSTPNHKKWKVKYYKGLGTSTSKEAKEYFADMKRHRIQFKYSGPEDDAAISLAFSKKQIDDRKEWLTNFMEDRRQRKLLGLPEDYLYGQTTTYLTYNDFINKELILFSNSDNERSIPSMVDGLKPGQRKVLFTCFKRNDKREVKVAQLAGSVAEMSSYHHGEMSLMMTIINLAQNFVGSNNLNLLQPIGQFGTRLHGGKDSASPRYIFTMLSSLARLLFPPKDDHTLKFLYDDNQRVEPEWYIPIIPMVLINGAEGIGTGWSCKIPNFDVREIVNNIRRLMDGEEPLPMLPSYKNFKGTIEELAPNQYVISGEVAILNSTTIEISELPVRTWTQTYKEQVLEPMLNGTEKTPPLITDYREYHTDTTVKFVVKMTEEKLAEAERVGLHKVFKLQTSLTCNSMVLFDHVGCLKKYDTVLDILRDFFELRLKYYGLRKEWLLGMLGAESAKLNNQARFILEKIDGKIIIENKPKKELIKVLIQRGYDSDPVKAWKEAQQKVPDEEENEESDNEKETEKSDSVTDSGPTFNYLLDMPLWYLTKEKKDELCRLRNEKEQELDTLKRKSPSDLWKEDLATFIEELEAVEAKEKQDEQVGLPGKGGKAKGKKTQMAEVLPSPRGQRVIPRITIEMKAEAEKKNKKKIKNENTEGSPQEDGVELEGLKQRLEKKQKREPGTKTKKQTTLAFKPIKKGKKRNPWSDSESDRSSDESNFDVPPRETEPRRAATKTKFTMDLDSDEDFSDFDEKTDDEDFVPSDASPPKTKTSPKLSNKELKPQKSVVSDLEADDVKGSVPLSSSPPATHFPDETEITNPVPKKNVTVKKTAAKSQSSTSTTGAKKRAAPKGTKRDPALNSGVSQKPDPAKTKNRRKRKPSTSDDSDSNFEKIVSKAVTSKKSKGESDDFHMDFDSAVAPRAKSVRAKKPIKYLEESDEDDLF

The term inhibition denotes how much of the control response was suppressed. One may read the IC50 as the point on the concentration scale where inhibition reaches its midpoint. Read a low IC50 as higher potency. What is called ΔTm is the change in melting temperature against a reference sample. As for `CN(C)CCNc1nc2c([nH]c3ccccc32)c(=O)[nH]1`, the inhibition in assay [1] amounted to 10%. Further, the inhibition entry in assay [2] was “inactive”. For the same molecule, the IC50 (in assay [3]; in the assay with HL-60) was > 100 µM throughout. Also, the ΔTm in the assay with Nucleic Acid [4] was 3 °C; in the assay on Nucleic Acid [5], 4.4 °C; in the assay with Calf thymus DNA [6], 0 °C; in the assay on Calf thymus DNA [7], 0.4 °C.
On to `COc1cc([C@@H]2c3cc4c(cc3[C@@H](O[C@@H]3O[C@@H]5CO[C@@H](C)O[C@H]5[C@H](O)[C@H]3O)[C@H]3COC(=O)[C@H]23)OCO4)cc(OC)c1O` [ETOPOSIDE], for which the IC50 in assay [3] amounted to 11.9 µM; in the assay with HL-60, 1.3 µM. The thermal shift (ΔTm) with Nucleic Acid [4], in the assay with Nucleic Acid [5], with Calf thymus DNA [6] and in the assay with Calf thymus DNA [7] was 0 °C in each case.
Turning to `CCn1c2ccccc2c2c3c(=O)[nH]c(NCCN(C)C)nc3ccc21`, in assay [2], the inhibition entry is “inactive”. Besides, the IC50 (in assay [3]; in the assay on HL-60) was 17 µM each time. In addition, the ΔTm in the assay on Nucleic Acid [4] was 15.4 °C; in the assay on Nucleic Acid [5], 15.9 °C; with Calf thymus DNA [6] it was 2.3 °C; with Calf thymus DNA [7] it was 3 °C.
